System: ASD patient
Test: ABC-J aberrant behavior checklist (58 items, each rated 0 no problems to 3 marked; 5 subscales) in ASD patients before and after oral intake of test drug
Format: in vivo, human
Set-up: key to ABC-J subscale total score: Hyperactivity / ABC-J subscale total score: Inappropriate Speech: subscale total: sum of its item scores (each 0 = none to 3 = marked)
Description: ABC-J is an aberrant behavior checklist available in Japan, which was made by translating and standardizing the revised version of the aberrant behavior checklist developed by American psychologists Aman M. G. and Singh N. N. as a rating scale for quantitatively assessing behavioral disorders associated with intellectual disability and developmental disorder. ABC-J is composed of 58 items that represent problematic behaviors, and a subject is assessed for each item on the following four-rating scale: there are no problems (0 points); the degree of problematic behavior is mild (1 point); the degree of problematic behavior is moderate (2 points); and the degree of problematic behavior is marked (3 points). These 58 items are classified into five subscales: I. Irritability (15 items); II. Lethargy (16 items); III. Stereotypical Behavior (7 items); IV. Hyperactivity (16 items); and V. Inappropriate Speech (4 items). Assessment can be made for each subscale (Ministry of Health, Labour and Welfare, Year 2012 Total Welfare Promotion Project for People with Disabilities, Guidelines for Support for and Assessment of Children with Developmental Disabilities, Asperger Society Japan (a specified non-profit organization), March 2013). […]
An ASD patient (body weight: 45 kg) orally took the test drug detailed below every day for 8 weeks, and their symptoms of ASD were assessed by the diagnostic method described below before (before the start of administration) and 8 weeks after the intake of the drug (8 weeks after the start of administration).
The symptoms of ASD of the ASD patient were assessed based on the scores of ABC-J, PARS-TR, and RSB-R (Japanese version) by a medical doctor who is a researcher of ASD. […]

[1] = case 1, 600 mg/day oral + fursultiamine 25 mg/day, 1 month after start, before administration: 0
[2] = case 1, 600 mg/day oral + fursultiamine 25 mg/day, 1 month after start, before administration: 1
[3] = case 1, 600 mg/day oral + fursultiamine 25 mg/day, 1 month after start, before administration: 2
[4] = case 1, 600 mg/day oral + fursultiamine 25 mg/day, 1 month after start, before administration: 3
[5] = case 2, 600 mg/day oral + fursultiamine 25 mg/day, 17 days after start, before administration: 0
[6] = case 2, 600 mg/day oral + fursultiamine 25 mg/day, 17 days after start, before administration: 1
[7] = case 2, 600 mg/day oral + fursultiamine 25 mg/day, 17 days after start, before administration: 2
[8] = case 2, 600 mg/day oral + fursultiamine 25 mg/day, 17 days after start, before administration: 4
[9] = case 4, 800 mg/day oral + fursultiamine 25 mg/day, 8 weeks

Cc1ncc(CO)c(CN)c1O.Cl.Cl [pyridoxamine dihydrochloride]
ABC-J symptoms across the 5 subscales I to V compared with before taking the drug (case 1, 600 mg/day oral + fursultiamine 25 mg/day, 1 month): significant improvement in symptoms | ABC-J item 2 score (Irritability) [1]: 0 | ABC-J item 3 score (Lethargy) [1]: 0 | ABC-J item 4 score (Irritability) [1]: 1 | ABC-J item 5 score (Lethargy) [1]: 0 | ABC-J item 9 score (Inappropriate Speech) [1]: 0 | ABC-J item 13 score (Hyperactivity) [1]: 0 | ABC-J item 16 score (Lethargy) [1]: 0 | ABC-J item 32 score (Lethargy) [1]: 1 | ABC-J item 33 score (Inappropriate Speech) [1]: 0 | ABC-J item 34 score (Irritability) [1]: 0 | ABC-J item 42 score (Lethargy) [1]: 0 | ABC-J item 47 score (Irritability) [1]: 0 | ABC-J item 50 score (Irritability) [1]: 0 | ABC-J item 52 score (Irritability) [1]: 0 | ABC-J item 53 score (Lethargy) [1]: 0 | ABC-J item 54 score (Hyperactivity) [1]: 0 | ABC-J item 55 score (Lethargy) [1]: 0 | ABC-J item 56 score (Hyperactivity) [1]: 0 | ABC-J item 8 score (Irritability) [2]: 0 | ABC-J item 12 score (Lethargy) [2]: 1 | ABC-J item 17 score (Stereotypical Behavior) [2]: 0 | ABC-J item 18 score (Hyperactivity) [2]: 0 | ABC-J item 19 score (Irritability) [2]: 0 | ABC-J item 20 score (Lethargy) [2]: 1 | ABC-J item 21 score (Hyperactivity) [2]: 0 | ABC-J item 24 score (Hyperactivity) [2]: 0 | ABC-J item 25 score (Irritability) [2]: 0 | ABC-J item 26 score (Lethargy) [2]: 0 | ABC-J item 28 score (Hyperactivity) [2]: 0 | ABC-J item 29 score (Irritability) [2]: 0 | ABC-J item 30 score (Lethargy) [2]: 0 | ABC-J item 31 score (Hyperactivity) [2]: 0 | ABC-J item 36 score (Irritability) [2]: 0 | ABC-J item 37 score (Lethargy) [2]: 0 | ABC-J item 40 score (Lethargy) [2]: 1 | ABC-J item 41 score (Irritability) [2]: 0 | ABC-J item 43 score (Lethargy) [2]: 0 | ABC-J item 46 score (Inappropriate Speech) [2]: 0 | ABC-J item 48 score (Hyperactivity) [2]: 1 | ABC-J item 51 score (Hyperactivity) [2]: 0 | ABC-J item 57 score (Irritability) [2]: 0 | ABC-J item 58 score (Lethargy) [2]: 1 | ABC-J item 1 score (Hyperactivity) [3]: 1 | ABC-J item 7 score (Hyperactivity) [3]: 0 | ABC-J item 10 score (Irritability) [3]: 0 | ABC-J item 14 score (Irritability) [3]: 0 | ABC-J item 15 score (Hyperactivity) [3]: 1 | ABC-J item 22 score (Inappropriate Speech) [3]: 1 | ABC-J item 23 score (Lethargy) [3]: 1 | ABC-J item 27 score (Stereotypical Behavior) [3]: 1 | ABC-J item 35 score (Stereotypical Behavior) [3]: 1 | ABC-J item 38 score (Hyperactivity) [3]: 1 | ABC-J item 39 score (Hyperactivity) [3]: 0 | ABC-J item 44 score (Hyperactivity) [3]: 0 | ABC-J item 45 score (Stereotypical Behavior) [3]: 1 | ABC-J item 49 score (Stereotypical Behavior) [3]: 1 | ABC-J item 6 score (Stereotypical Behavior) [4]: 1 | ABC-J item 11 score (Stereotypical Behavior) [4]: 1 | ABC-J subscale total score: Inappropriate Speech [4]: 1 | ABC-J subscale total score: Lethargy (case 1, 600 mg/day oral + fursultiamine 25 mg/day, 1 month after start, before administration: 10): 6 | ABC-J subscale total score: Irritability (case 1, 600 mg/day oral + fursultiamine 25 mg/day, 1 month after start, before administration: 11): 1 | ABC-J subscale total score: Stereotypical Behavior (case 1, 600 mg/day oral + fursultiamine 25 mg/day, 1 month after start, before administration: 15): 6 | ABC-J subscale total score: Hyperactivity (case 1, 600 mg/day oral + fursultiamine 25 mg/day, 1 month after start, before administration: 19): 4 | ABC-J symptoms across all of the 5 subscales I to V (case 2, 600 mg/day oral + fursultiamine 25 mg/day, 17 days): significantly improved symptoms | ABC-J item 2 score (Irritability) [5]: 0 | ABC-J item 7 score (Hyperactivity) [5]: 0 | ABC-J item 8 score (Irritability) [5]: 0 | ABC-J item 9 score (Inappropriate Speech) [5]: 0 | ABC-J item 11 score (Stereotypical Behavior) [5]: 0 | ABC-J item 13 score (Hyperactivity) [5]: 0 | ABC-J item 17 score (Stereotypical Behavior) [5]: 0 | ABC-J item 18 score (Hyperactivity) [5]: 0 | ABC-J item 19 score (Irritability) [5]: 0 | ABC-J item 27 score (Stereotypical Behavior) [5]: 0 | ABC-J item 28 score (Hyperactivity) [5]: 0 | ABC-J item 29 score (Irritability) [5]: 0 | ABC-J item 31 score (Hyperactivity) [5]: 0 | ABC-J item 32 score (Lethargy) [5]: 0 | ABC-J item 33 score (Inappropriate Speech) [5]: 0 | ABC-J item 34 score (Irritability) [5]: 0 | ABC-J item 36 score (Irritability) [5]: 0 | ABC-J item 38 score (Hyperactivity) [5]: 0 | ABC-J item 39 score (Hyperactivity) [5]: 0 | ABC-J item 41 score (Irritability) [5]: 0 | ABC-J item 44 score (Hyperactivity) [5]: 0 | ABC-J item 47 score (Irritability) [5]: 0 | ABC-J item 48 score (Hyperactivity) [5]: 0 | ABC-J item 49 score (Stereotypical Behavior) [5]: 0 | ABC-J item 50 score (Irritability) [5]: 0 | ABC-J item 51 score (Hyperactivity) [5]: 0 | ABC-J item 52 score (Irritability) [5]: 0 | ABC-J item 53 score (Lethargy) [5]: 0 | ABC-J item 54 score (Hyperactivity) [5]: 0 | ABC-J item 55 score (Lethargy) [5]: 0 | ABC-J item 56 score (Hyperactivity) [5]: 0 | ABC-J item 57 score (Irritability) [5]: 0 | ABC-J item 1 score (Hyperactivity) [6]: 1 | ABC-J item 4 score (Irritability) [6]: 0 | ABC-J item 10 score (Irritability) [6]: 0 | ABC-J item 12 score (Lethargy) [6]: 0 | ABC-J item 15 score (Hyperactivity) [6]: 1 | ABC-J item 20 score (Lethargy) [6]: 0 | ABC-J item 21 score (Hyperactivity) [6]: 0 | ABC-J item 23 score (Lethargy) [6]: 0 | ABC-J item 24 score (Hyperactivity) [6]: 0 | ABC-J item 26 score (Lethargy) [6]: 1 | ABC-J item 30 score (Lethargy) [6]: 0 | ABC-J item 35 score (Stereotypical Behavior) [6]: 0 | ABC-J item 37 score (Lethargy) [6]: 0 | ABC-J item 40 score (Lethargy) [6]: 0 | ABC-J item 43 score (Lethargy) [6]: 0 | ABC-J item 58 score (Lethargy) [6]: 0 | ABC-J item 3 score (Lethargy) [7]: 0 | ABC-J item 5 score (Lethargy) [7]: 1 | ABC-J item 6 score (Stereotypical Behavior) [7]: 1 | ABC-J item 14 score (Irritability) [7]: 0 | ABC-J item 16 score (Lethargy) [7]: 1 | ABC-J item 22 score (Inappropriate Speech) [7]: 1 | ABC-J item 25 score (Irritability) [7]: 0 | ABC-J item 45 score (Stereotypical Behavior) [7]: 1 | ABC-J item 46 score (Inappropriate Speech) [7]: 1 | ABC-J item 42 score (Lethargy) (case 2, 600 mg/day oral + fursultiamine 25 mg/day, 17 days after start, before administration: 3): 2 | ABC-J subscale total score: Hyperactivity [8]: 2 | ABC-J subscale total score: Inappropriate Speech [8]: 2 | ABC-J subscale total score: Stereotypical Behavior (case 2, 600 mg/day oral + fursultiamine 25 mg/day, 17 days after start, before administration: 5): 2 | ABC-J subscale total score: Irritability (case 2, 600 mg/day oral + fursultiamine 25 mg/day, 17 days after start, before administration: 6): 0 | ABC-J subscale total score: Lethargy (case 2, 600 mg/day oral + fursultiamine 25 mg/day, 17 days after start, before administration: 18): 5 | total score of all ABC-J items compared with before administration (case 3, 800 mg/day oral + fursultiamine 25 mg/day, 8 weeks, FIG. 7A): decreased | ABC-J total score of each of the 5 subscales compared with before administration (case 3, 800 mg/day oral + fursultiamine 25 mg/day, 8 weeks, FIG. 7B): decreased | total score of all items of ABC-J compared with before administration (case 4 (no speech), 800 mg/day oral + fursultiamine 25 mg/day, 8 weeks, FIG. 9A): decreased | severity of irritability and self-harming behavior [9]: alleviated the severity | stereotypical behaviors (DSM-5 diagnostic criteria B(1)) [9]: significantly improved | ABC-J subtotal score of the four subscales compared with before administration (case 4, 800 mg/day oral + fursultiamine 25 mg/day, 8 weeks, Inappropriate Speech zero because no speech, FIG. 9B): decreased
